Results as given in US20240074473A1, “METHOD FOR INDUCING HYPERTROPHIC MUSCLE FIBERS FOR INDUSTRIAL MEAT PRODUCTION” (Yeda Research and Development Co. Ltd., priority 2021, published 2024).
Where two headings read alike, the source gives them in different places.

How the values were obtained:
[1] = system: primary chicken myoblasts; test: Fusion index of primary chicken myoblasts (MyHC immunostaining); format: cell-based; conditions: primary chicken myoblasts; for Fusion index in combination with ERK inhibitor vs ERK inhibitor alone: proliferation media; for Fusion index in combination with ERK inhibitor vs ERK inhibitor alone / Fusion index: 48 hours; for Fusion: 48 hours post treatment; for Fusion index: proliferation medium
Experimental: Chicken primary derived myoblasts were used as a model to evaluate the efficiency of SCH772984 as the ERKi, compared to conventional differentiation medium (DM) for the purpose of producing muscle (meat) in tissue culture conditions. Chicken myoblasts were isolated from chicken embryos and expanded in proliferation medium. When sufficient cell numbers were acquired, cells were seeded on tissue culture plates and allowed to adhere for 24 hours. Then medium was changed to either PM supplemented with ERKi or DM. At 24-hours post treatment, the cells that received ERKi were replenished with fresh PM (without the addition of more ERKi), and DM treated cells were replenished with fresh DM. Media was replaced daily over a period of 72 hours.
Evaluation of muscle fiber formation was achieved by fixing the cells and staining for expression of Myosin Heavy Chain (FIG. 9A). […] Yet, treatment with conventional DM only began to form fibers beginning at 72-hours post treatment. A fusion index was quantified at 72 hours post treatment (FIG. 9B), in which the percentage of total nuclei present in a myotube (MyHC positive cell with 2 or more nuclei).
Primary chicken myoblast isolation and treatment: chicken myoblasts were isolated from broiler chicken embryos at day 18 from breast and leg muscles by using Trypsin B. Following tissue dissociation, the cell suspension was grown for 3-4 days on 10% Matrigel coated plates. At the first passage, the cells were lifted and pre-plated twice for 30 minutes to enrich for myoblasts and reduce the number of fibroblasts. Then cells were seeded at 8,000/well of optical-96 well plates in proliferation medium. 24 hours after plating, media was aspirated and replaced with the indicated treatment conditions in proliferation media or differentiation media (as indicated). After 24 hours with treatment, the media was aspirated and all wells were replenished with fresh proliferation media or differentiation media without any treatment. This was repeated daily. Cells were fixed at 48 hours after treatment. Compounds were purchased from Cayman Chemicals.
Immunofluorescent staining: Cells were fixed with ice cold 4% PFA in PBS for 10 minutes, permeabilized with 0.5% Triton X-100 in PBS for 6 minutes, and blocked in PBS with 0.025% tween, 10% normal horse serum and 10% normal goat serum for 1 hour at room temperature. Primary antibody incubation was done in blocking buffer overnight at 4 degrees, with the following antibodies: Myosin Heavy Chain (MyHC, MF20, DSHB hybridoma supernatant 1:10, alpha-actinin (SIGMA A7811). Cells were washed 3 times in PBS with 0.025% tween and then incubated with appropriate secondary antibodies in PBS 1 hour. Nuclei were labeled with DAPI (SIGMA D9542, 5 ug/ml). All fusion indexes and imaging analysis were performed on at least 1000 per technical repeat.

[2] = Risk categorization of cell culture media ingredients
Source text: Category 1: These cell culture media components are food ingredients/additives that are GRAS or permitted by federal regulation without limitation on use. Exemplary compounds in this category include innocuous ingredients such as sugars, pH buffers, water soluble vitamins, and common antioxidants such as tocopherols.
Category 2: These cell culture media components are common dietary nutrients and are anticipated to have GRAS status for food use or be permitted by regulation for addition to food. Examples of such compounds include most of the inorganic salts and macronutrients that are present within the cell culture media. […] Majority of nutrients present within the poultry cell-based meat may be readily measured using common validated methods for food composition testing. Batch analyses of multiple lots of the finished product may be obtained to validate the above assumptions. In some instances, consideration of established safe levels (e.g., ADI, UL) derived from a relevant authoritative body (e.g., U.S. FDA, EFSA, JECFA, FSANZ, U.S. EPA) may be leveraged to support safety. If comparisons of anticipated dietary intakes relative to an authoritative reference intake value is used, consideration of additive intakes from all dietary sources may be considered. In the absence of an authoritative reference intake value, published NOAELs from animal toxicology studies may be used to evaluate safety using standard scientific procedures for food safety evaluation. A margin of exposure (MoE) of 100-fold or greater between the NOAEL and estimated dietary intakes from food exposures is typically considered adequate to support safety. in situations where the MoE is <100-fold, additional measures for further reduction of the media component may be necessary, or further characterization of intraspecies/interspecies differences in metabolism may be necessary. These situations also require careful consideration of the regulatory status on a case-by basis (e.g., premarket approval as a food additive or GRAS evaluation required).
For example, situations where the compound is not detectable in finished product or is present at equivalent levels in comparator foods, compounds that are thermo-labile and will be digested during cooking, and/or compounds that are expected to be digested to innocuous compounds following ingestion. Examples of compounds meeting the aforementioned conditions would include recombinant growth factors and serum components. For Category 3 substances a final consideration in the safety assessment process may involve hazard characterization of the potential for a substance to produce toxic biological effects outside of the endpoints measured in a sub-chronic rat toxicity study. Substances with biological activity may require additional hazard characterization related to reproductive and developmental toxicity, or immunotoxicity. Considerations for allergenicity, biological effects in humans (e.g., effects on blood pressure), and synergistic effects with other media components also may be evaluated. […] Examples of category 3 components include recombinant proteins and animal serum.

[3] = Maximum estimated dietary exposure to media ingredients per 100 g serving; conditions: assumption of complete transfer of media components to the finished product on a wt/wt basis
[4] = human dietary intake; cited from earlier work
[5] = SCH772984 1 uM plus 9-cis RA 200 nM, AM80 200 nM, AM580 100 nM, CH55 200 nM, TTNPB 200 nM, Fenretinide 200 nM
[6] = SCH772984 1 uM plus Caffeine 2 mM or Suramin 10 μM
[7] = cell culture media ingredient used during meat production

## CC1=C(/C=C/C(C)=C\C=C\C(C)=C\C(=O)O)C(C)(C)CCC1 [9-cis retinoic acid]
[1]; [5]
  Fusion index in combination with ERK inhibitor vs ERK inhibitor alone: significantly increased the fusion index

## CC1(C)CCC(C)(C)c2cc(NC(=O)c3ccc(C(=O)O)cc3)ccc21 [AM80]
[1]; [5]
  Fusion index in combination with ERK inhibitor vs ERK inhibitor alone: significantly increased the fusion index

## CC1(C)CCC(C)(C)c2cc(C(=O)Nc3ccc(C(=O)O)cc3)ccc21 [AM580]
[1]; [5]
  Fusion index in combination with ERK inhibitor vs ERK inhibitor alone: significantly increased the fusion index

## O=C1O[C@H]([C@@H](O)CO)C(O)=C1O [ASCORBIC ACID]
[2]
  Risk Assessment Category: 1
[3]
  Maximum Estimated Exposure per 100 g serving: 2000 mg

## CC(C)(C)c1cc(C(=O)/C=C/c2ccc(C(=O)O)cc2)cc(C(C)(C)C)c1 [CH55]
[1]; [5]
  Fusion index in combination with ERK inhibitor vs ERK inhibitor alone: significantly increased the fusion index

## C[N+](C)(C)CCO.[Cl-] [CHOLINE CHLORIDE]
[2]
  Risk Assessment Category: 1
[3]
  Maximum Estimated Exposure per 100 g serving: 52 mg

## Cn1c(=O)c2c(ncn2C)n(C)c1=O [Caffeine]
[1]; [6]
  Fusion index in combination with ERK inhibitor vs ERK inhibitor alone: significantly increased the fusion index

## O=C(O)CCCC[C@@H]1SC[C@@H]2NC(=O)N[C@@H]21 [D-BIOTIN]
[2]
  Risk Assessment Category: 1
[3]
  Maximum Estimated Exposure per 100 g serving: 4 mg

## O=C[C@H](O)[C@@H](O)[C@H](O)[C@H](O)CO [D-GLUCOSE]
[2]
  Risk Assessment Category: 1

## Nc1nc2ncc(CNc3ccc(C(=O)N[C@@H](CCC(=O)O)C(=O)O)cc3)nc2c(=O)[nH]1 [FOLIC ACID]
[2]
  Risk Assessment Category: 1
[3]
  Maximum Estimated Exposure per 100 g serving: 60 mg

## CC1=C(/C=C/C(C)=C/C=C/C(C)=C/C(=O)Nc2ccc(O)cc2)C(C)(C)CCC1 [Fenretinide]
[1]; [5]
  Fusion index in combination with ERK inhibitor vs ERK inhibitor alone: significantly increased the fusion index

## C[C@H](N)C(=O)O [L-ALANINE]
[2]
  Risk Assessment Category: 2

## NC(=O)C[C@H](N)C(=O)O.O [L-ASPARAGINE-H20]
[2]
  Risk Assessment Category: 2

## Cl.N[C@@H](CS)C(=O)O.O [L-CYSTEINE HCL H20]
[2]; [7]
  Risk Assessment Category: 2

## Cl.Cl.N[C@@H](CSSC[C@H](N)C(=O)O)C(=O)O [L-CYSTINE 2HCL]
[2]
  Risk Assessment Category: 2

## N[C@@H](CCC(=O)N[C@@H](CS)C(=O)NCC(=O)O)C(=O)O [L-GLUTATHIONE]
[2]
  Risk Assessment Category: 2
[3]
  Maximum Estimated Exposure per 100 g serving: 36 mg

## Cl.N[C@@H](Cc1cnc[nH]1)C(=O)O.O [L-HISTIDINE-HCL-H20]
[2]; [7]
  Risk Assessment Category: 2

## CC[C@H](C)[C@H](N)C(=O)O [L-ISOLEUCINE]
[2]
  Risk Assessment Category: 2

## Cl.NCCCC[C@H](N)C(=O)O [L-LYSINE-HCL]
[2]; [7]
  Risk Assessment Category: 2

## CSCC[C@H](N)C(=O)O [L-METHIONINE]
[2]
  Risk Assessment Category: 2

## N[C@@H](Cc1ccccc1)C(=O)O [L-PHENYLALANINE]
[2]; [7]
  Risk Assessment Category: 2

## N[C@@H](CO)C(=O)O [L-SERINE]
[2]
  Risk Assessment Category: 2

## C[C@@H](O)[C@H](N)C(=O)O [L-THREONINE]
[2]
  Risk Assessment Category: 2

## N[C@@H](Cc1c[nH]c2ccccc12)C(=O)O [L-TRYPTOPHAN]
[2]
  Risk Assessment Category: 2

## N[C@@H](Cc1ccc([O-])cc1)C(=O)[O-].O.O.[Na+].[Na+] [L-TYROSINE-2NA-2H20]
[2]; [7]
  Risk Assessment Category: 2

## CC(C)[C@H](N)C(=O)O [L-VALINE]
[2]
  Risk Assessment Category: 2

## O[C@H]1[C@H](O)[C@@H](O)[C@H](O)[C@@H](O)[C@H]1O [MYO-INOSITOL]
[2]
  Risk Assessment Category: 1
[3]
  Maximum Estimated Exposure per 100 g serving: 430 mg

## Cc1ncc(CO)c(C=O)c1O.Cl [PYRIDOXAL-HCL]
[2]
  Risk Assessment Category: 1

## Cc1ncc(CO)c(CO)c1O.Cl [PYRIDOXINE-HCL]
[2]; [7]
  Risk Assessment Category: 1
[3]
  Maximum Estimated Exposure per 100 g serving: 25 mg

## [Cl-].[Na+] [SODIUM CHLORIDE]
[4]
  Safe Reference Level for Human Dietary Intake (kind of level not given): 2.3 g/day

## O.O.O.O.O.O.O.O.O.O=[Si]([O-])[O-].[Na+].[Na+] [SODIUM METASILICATE-9H2O]
[2]
  Risk Assessment Category: 1
[3]
  Maximum Estimated Exposure per 100 g serving: 1.6 mg

## O.O=P([O-])(O)O.[Na+] [SODIUM PHOSPHATE MONOBASIC H20]
[2]; [7]
  Risk Assessment Category: 1
[3]
  Maximum Estimated Exposure per 100 g serving: 1500 mg

## Cc1ccc(C(=O)Nc2ccc(S(=O)(=O)O)c3cc(S(=O)(=O)O)cc(S(=O)(=O)O)c23)cc1NC(=O)c1cccc(NC(=O)Nc2cccc(C(=O)Nc3cc(C(=O)Nc4ccc(S(=O)(=O)O)c5cc(S(=O)(=O)O)cc(S(=O)(=O)O)c45)ccc3C)c2)c1 [Suramin]
[1]; [6]
  Fusion index in combination with ERK inhibitor vs ERK inhibitor alone: significantly increased the fusion index

## C/C(=C\c1ccc(C(=O)O)cc1)c1ccc2c(c1)C(C)(C)CCC2(C)C [TTNPB]
[1]; [5]
  Fusion index in combination with ERK inhibitor vs ERK inhibitor alone: significantly increased the fusion index

## N#CC(=C(/N)Sc1ccccc1N)/C(C#N)=C(\N)Sc1ccccc1N [U0126]
[1]; Differentiation media, 1 uM
  Fusion: 29%
[1]; Differentiation media, 10 uM
  Fusion: 47%
[1]; Proliferation media, 1 uM
  Fusion: 16%
[1]; Proliferation media, 10 uM
  Fusion: 7%

## CNc1ccc2oc(C[C@H]3O[C@@]4(CC[C@H]3C)O[C@H]([C@H](C)C(=O)c3ccc[nH]3)[C@H](C)C[C@H]4C)nc2c1C(=O)O [calcimycin]
[1]; ionophore 1 uM plus ERKi 1 uM
  Fusion index: 94%

## CCOC(=O)CCCCCCCCCCCN(C)C(=O)CO[C@H](C)[C@@H](C)OCC(=O)N(C)CCCCCCCCCCCC(=O)OCC [calcium ionophore I]
[1]; ionophore 2 uM plus ERKi 1 uM
  Fusion index: 89%

## C[C@H](CCC(=O)O)C[C@H](C)C[C@H](C)C(=O)/C=C(\O)[C@H](C)C[C@H](C)C/C=C/[C@@H](C)[C@@H](O)[C@@H](C)[C@@H](O)C[C@@H]1CC[C@@](C)([C@H]2CC[C@@](C)([C@@H](C)O)O2)O1 [ionomycin]
[1]; ionophore 2 uM plus ERKi 1 uM
  Fusion index: 89%

## BOVINE SERUM ALBUMIN: animal component of cell culture media
[2]
  Risk Assessment Category: 3

## FGF2 (FIBROBLAST GROWTH FACTOR-BASIC): growth factor of cell culture media
[2]
  Risk Assessment Category: 3

## IGF-1 (INSULIN-LIKE GROWTH FACTOR 1): growth factor of cell culture media
[2]
  Risk Assessment Category: 3

## PDGF-BB (PLATELET DERIVED GROWTH FACTOR-BB): growth factor of cell culture media
[2]
  Risk Assessment Category: 3
